Laboratory results taken from paper PMC2246479, “A phase 1 and pharmacokinetic study of didox: a ribonucleotide reductase inhibitor” (British Journal of Cancer, 1988).

How the values were obtained:
[1] = system: metastatic carcinoma; assay: Clinical response in the phase 1 study; type: in vivo, human; settings: 34 patients, any dosage level
[2] = system: mice; settings: single dose, ref CRC Sponsored Toxicity Report, 1984; cited from earlier work
[3] = system: a number of cell lines; settings: continuous drug exposure, no reference given; cited from earlier work
[4] = system: pools of deoxyribonucleotides; settings: cited from earlier work
[5] = system: L1210 leukaemia; set-up: method as in Van't Riet et al., 1979; settings: L1210 leukaemia bearing female mice; ref Van't Riet et al., 1979; cited from earlier work
[6] = system: murine tumours; set-up: method as in Elford et al., 1984; settings: ref Elford et al., 1984; cited from earlier work
[7] = biological target: ribonucleotide reductase; settings: cited from earlier work
[8] = in vivo
[9] = set-up: method as in Van't Riet, personal communication; settings: rats; ref Van't Riet, personal communication; cited from earlier work
[10] = system: patients with unresponsive metastatic carcinoma; settings: in vivo
[11] = system: NCI tumour panel; set-up: method as in Elford & Van't Riet, 1985; settings: ref Elford & Van't Riet, 1985; cited from earlier work

SMILES: O=C(NO)c1ccc(O)c(O)c1 [didox, N,3-4 trihydroxy-benzamide]
- Clinical responses [1]: No clinical responses
- LD10 [2]: 643 mg/kg
- Growth inhibitory concentration in vitro [3]: up to 100 uM
- Depletion of the pools of all deoxyribonucleotides ([4]; ref Elford et al., 1981): over 50%
- Anti-neoplastic activity [5]: anti-neoplastic activity
- Interaction with doxorubicin and cyclophosphamide [6]: act synergistically
- IC50 ([7]; enzyme study, no reference given, read-out: Concentration causing 50% inhibition of the target enzyme): 30 µM
- Inhibition of ribonucleotide reductase compared to hydroxyurea ([7]; ref Elford et al., 1979): greater inhibition
- Steady state volume of distribution ([8]; human): 27.9 ± 6.2 lm-2
- Total body Clearance ([8]; human): 0.71 ± 0.19 Imin- 1 m-2
- t1/2 alpha ([8]; human): 5.2 min
- t1/2 beta ([8]; human): 41.3 min
- Time to peak level of didox after injection ([8]; human, iv): ≤ 5 min
- Administered dose excreted unchanged in the urine ([8]; iv): Less than 10%
- Time within which the majority of urinary excretion occurred ([8]; iv): ≤ 6 h
- Major metabolites formed [9]: 3,4-dihydroxybenzamide, 3-hydroxy-4-methoxybenzo- hydroxamic acid and 3-methoxy-4-hydroxy- benzohydroxamic acid
- Maximum tolerated dose / dose that can be safely given ([10]; human, iv): 6 g m-2
- Patients with severe diarrhoea (grade 4) [10]: 2 patients
- Total white cell count after didox [10]: > 20 x 109 1-
- Dose above which severe nausea and vomiting almost universal ([10]; iv): above 7 g m- 2
- Dose at which dose limiting toxicity was encountered ([10]; iv): 7.5 g m-2
- Dose at which minor toxicity was initially noted ([10]; iv): 2,304 mg m 2
- Activity in the NCI tumour panel [11]: active

SMILES: NC(=O)NO [hydroxyurea, reference compound]
- Deoxyribonucleotide pools depleted ([4]; ref Thelander & Reichard 1979): only depleted pools of dGTP and dATP
- Inhibition of ribonucleotide reductase in vitro ([7]; ref Elford, 1968): weak inhibitor
